{"source": "paper PMC11413854", "about": "“Reversible Control of Native GluN2B-Containing NMDA Receptors with Visible Light” (ACS Chemical Neuroscience, 2024)", "biological_target": "T1, GluA2 AMPA receptors (Rattus norvegicus, UniProt P19491)", "T1 construct": "expressed in transfected cells; host or cells: Xenopus laevis oocytes (mRNA injection)", "T1 sequence (P19491 22-883 isoform P19491-2 limits assumed)": "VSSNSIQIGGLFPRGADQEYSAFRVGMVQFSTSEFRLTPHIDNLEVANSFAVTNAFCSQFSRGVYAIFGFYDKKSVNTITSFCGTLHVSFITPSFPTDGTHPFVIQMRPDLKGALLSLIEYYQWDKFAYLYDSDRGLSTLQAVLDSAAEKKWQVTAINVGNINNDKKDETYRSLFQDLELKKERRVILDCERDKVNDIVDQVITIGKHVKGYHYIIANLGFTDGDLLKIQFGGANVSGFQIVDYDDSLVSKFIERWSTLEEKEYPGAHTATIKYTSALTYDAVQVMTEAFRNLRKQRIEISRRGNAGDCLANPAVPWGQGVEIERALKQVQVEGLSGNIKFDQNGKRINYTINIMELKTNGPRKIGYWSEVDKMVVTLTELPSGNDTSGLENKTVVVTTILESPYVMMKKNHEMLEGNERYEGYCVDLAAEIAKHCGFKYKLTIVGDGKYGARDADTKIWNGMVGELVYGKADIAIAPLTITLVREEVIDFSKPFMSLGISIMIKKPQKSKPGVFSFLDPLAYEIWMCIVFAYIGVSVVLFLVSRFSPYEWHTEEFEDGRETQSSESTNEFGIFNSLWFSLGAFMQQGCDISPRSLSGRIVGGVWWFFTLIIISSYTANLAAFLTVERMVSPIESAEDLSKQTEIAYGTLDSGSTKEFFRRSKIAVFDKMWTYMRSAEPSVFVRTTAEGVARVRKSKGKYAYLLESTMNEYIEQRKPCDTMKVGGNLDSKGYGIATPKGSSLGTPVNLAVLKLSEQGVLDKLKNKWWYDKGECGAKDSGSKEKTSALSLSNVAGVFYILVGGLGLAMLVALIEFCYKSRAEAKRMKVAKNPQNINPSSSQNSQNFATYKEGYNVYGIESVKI", "assay": "TEVC on Xenopus oocytes, GluA2 AMPA receptors", "type": "cell-based", "design": "Inhibition, individual values: scale not given here", "settings": "for Inhibition, individual values: GluA2, single cells", "excerpt": "We used cDNA coding for rat GluN1–1a (named GluN1 herein) (GenBank: U08261.1), rat GluN2A (GenBank: D13211.1), mouse GluN2B (GenBank: D10651.2), rat GluA1 flop (GenBank: M36418.2), and rat Myc-GluA2(Q)-flip (GenBank: AF164344.1) cloned into pcDNA3-based expression plasmids. GluK2 (GenBank: Z11548.1) corresponds to the fully RNA-edited version.[80] The GluN2B-ΔNTD construct is from ref[45] and GluN2B–N615K is from ref[81]. Single mutants GluN2B-Q110G and GluN1-L135H were from ref[19]. The GluA2 cDNA contains a Myc tag ([…]) fused between the signal peptide and the N-terminus sequences, and the GluA2 subunit is […] for its Q/R/N site (GluA2(Q)) to allow permeation of homomeric GluA2 receptors.[2] cDNAs coding for rat GluN2C (GenBank: M91563.1) and GluN2D subunits (GenBank: L31611.1) were in prK5 plasmids.\nThe expression of recombinant GluA1, GluA2(Q), and GluK2 receptors was obtained by oocyte injection of 50 nL of mRNAs (at 1 μg/μL). mRNAs were generated using the T7 (GluA1 and GluA2) and T3 (GluK2) mMessage mMachine transcription kits (Invitrogen) after cDNA linearization with the SacII restriction enzyme. The injected oocytes were stored in the same conditions as for NMDARs and used 72–96 h postinjection.\nTEVC recordings were performed 1–3 days following injection. TEVC recordings were performed using an Oocyte Clamp amplifier OC-725 (Warner Instruments) and computer-controlled via a 1440A Digidata (Molecular Devices). Currents were sampled at 100 Hz and low-pass-filtered at 20 Hz using an 8-pole Bessel filter (900 Series, Frequency Devices Inc.). Data were collected with Clampfit 10.3. During the recording, the cells were continuously perfused with external recording Ringer solution at pH 7.3 (in mM: 100 NaCl, 0.3 BaCl2, 5 HEPES, and 2.5 KCl, pH adjustment to 7.3 by the addition of NaOH). The NMDA currents were induced by simultaneous application of L-glutamate and glycine (agonist solution) at saturating concentration (100 μM each), and DTPA (10 μM) to prevent receptor inhibition by ambient zinc (∼20 nM).[83] A control solution (100 μM glycine and 10 μM DTPA in Ringer pH 7.3) was used for washout of drug and test solutions. AMPA and kainate receptor currents were induced in the same conditions as NMDA currents (100 μM glutamate and glycine + 10 μM DTPA). Oocytes expressing GluK2 kainate receptors were treated with concanavalin A ([…], equivalent to 1.1 mg/mL) during 10 min before recording to decrease receptor desensitization. Unless notified, recordings were performed at a holding potential of −60 mV. All experiments were performed at room temperature. […]", "note": "Several values for one entry are separate records, joined by “and”; a condition that tells them apart may be missing. Equal entries are not always repeated. Where two headings read alike, the source gives them in different places."}
{"smiles": "c1ccc(/N=N/c2ccc(CCNc3ccncc3)cc2)cc1", "note": "[OptoNAM-3, (E)-N-(4-(Phenyldiazenyl)phenethyl)pyridin-4-amine]", "values": [{"measurement": "inhibition at 10 µM", "setting": "10 µM OptoNAM-3 365 nm PSS, construct GluA2, read-out: Inhibition (%)", "value": -4.9, "unit": "%"}, {"measurement": "Inhibition, individual values", "setting": "10 µM OptoNAM-3 dark PSS (trans) as headed, second block", "value": "-0.00171 and -0.04016 and -0.1082 and -0.02166 and -0.07608 and -0.04674"}, {"measurement": "Inhibition, individual values", "setting": "10 µM OptoNAM-3 dark PSS (trans), first block", "value": "-0.007761 and -0.14 and -0.08034 and -0.01769 and -0.2089 and 0.009857"}, {"measurement": "inhibition at 10 µM", "setting": "10 µM OptoNAM-3 dark PSS (trans), construct GluA2, read-out: Inhibition (%)", "value": -7.4, "unit": "%"}, {"measurement": "inhibition of GluA2 currents", "setting": "10 µM, dark PSS", "value": "no effect"}, {"measurement": "inhibition at 10 µM", "setting": "10 µM, dark PSS, read-out: inhibition of GluA2 currents", "value": "-7.4 ± 3.5", "unit": "%"}]}
